Experiments:
[1] = target: T1, recombinant human matriptase (Homo sapiens, UniProt Q9Y5Y6); test: In vitro cleavage of CDCP1 by matriptase (SDS-PAGE, silver stain); type: biochemical; conditions: enzyme to substrate ratio 1:5, pH 9.0, 37 °C, 30 min and 2 h, 10‒0.01 µM inhibitor, qualitative
T1 construct: purchased R&D Systems 3946-SE-010
T1 sequence (Q9Y5Y6 615-855 limits assumed): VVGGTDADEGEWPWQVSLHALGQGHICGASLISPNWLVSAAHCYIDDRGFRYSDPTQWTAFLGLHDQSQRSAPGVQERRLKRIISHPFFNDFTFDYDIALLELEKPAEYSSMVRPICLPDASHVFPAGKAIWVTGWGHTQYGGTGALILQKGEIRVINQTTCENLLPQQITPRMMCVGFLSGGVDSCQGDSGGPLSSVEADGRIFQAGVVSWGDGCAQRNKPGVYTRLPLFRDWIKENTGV
Text: Due to the significance of these proteases in cancer progression and metastasis, as well as their functional redundancy with respect to targeting overlapping substrates, we focused our studies on examining the effect of kempopeptin C (3) on the downstream cellular substrates of matriptase. Due to the limited amount of 3, our study aimed to provide a qualitative preliminary characterization of CDCP1 and Dsg-2 cleavage inhibition by kempopeptin C (3). […] CDCP1 is considered a potential prognostic marker with expression levels found to correlate with the recurrence and survival rate of cancer patients. […] The exact mechanism regulating the generation of the LMW fragment is poorly understood; however, there is evidence for the involvement of serine protease proteolytic activity. Several studies provided evidence for serine protease-mediated (trypsin, plasmin and matriptase) cleavage of CDCP1 [15, 38]. Therefore, we examined the ability of recombinant human matriptase to cleave CDCP1 in vitro and assessed the effect of kempopeptin C (3) on inhibiting/reducing this cleavage. Recombinant human matriptase was incubated with CDCP1 (final molar ratio 1:5) at different time points (30 min and 2 h) at 37 °C in the presence of varying concentrations of kempopeptin C (3) or solvent control (Figure 4A,B). […] LMW fragments were more readily detected at longer incubation times (2 h). […]

[2] = system: CDCP1 cleavage in MDA-MB-231 cells; test: Cleavage of cellular CDCP1 in MDA-MB-231 supplemented with exogenous recombinant human matriptase; type: cell-based; conditions: MDA-MB-231 + 10 nM recombinant human matriptase, 24 h, different concentrations
Description: Figure 6 The effect of kempopeptins B and C (2 and 3) on CDCP1 cleavage in MDA-MB-231. (A) MDA-MB-231 cells were treated for 72 h with different concentrations of the test compounds. Following 72 h, the lysates were collected and analyzed by Western blot. (B) MDA-MB-231 cells were treated at different time points with 100 µM of kempopeptin C (3). Following 6 h, 12 h and 24 h, the lysates were collected and analyzed by Western blot. Dexamethasone (Dex) was used as a positive control. (C) MDA-MB-231 cells treated for 24 h with different concentrations of 3 in the presence of 10 nM recombinant human matriptase. Cell lysates were harvested and analyzed by Western blot. (D) Densitometric analysis of the full-length, LMW of CDCP1 and actin bands in (C).
In this experiment, we aimed to investigate the ability of 3 to inhibit cell-expressed CDCP1 rather than the purified recombinant protein in vitro. In contrast to the well-controlled in vitro assay, several factors might influence the extracellular matriptase activity in the cell-based assay; for example, the occurrence of additional secreted cellular factors, differences in pH, in addition to the unknown enzyme:substrate:inhibitor ratio. […] Additionally, matriptase is one of at least two other proteases known to process CDCP1, where plasmin is the main protease cleaving CDCP1 in MDA-MB-231 cells. […]

`CCCC(=O)NC(C(=O)NC1C(=O)NC(CCCCN)C(=O)NC2CCC(O)N(C2=O)C(C(C)CC)C(=O)N(C)C(Cc2ccc(OC)c(Cl)c2)C(=O)NC(C(C)C)C(=O)OC1C)C(C)C` (stereo not shown) [Kempopeptin C, kempopeptin C] was tested, and the “Inhibition of in vitro cleavage of CDCP1 by matriptase” value [1] was “inhibit the cleavage”, the “Inhibition of in vitro cleavage of CDCP1 by matriptase” value ([1]; listed as Kempopeptin C (3)) was “able to only minimize the cleavage at 10 µM” and the “Reduction of cleavage of cellular CDCP1 in presence of exogenous matriptase” value [2] was “reduced the cleavage of CDCP1”. The “Reduction of cleavage of cellular CDCP1 in presence of exogenous matriptase” value ([2]; listed as Kempopeptin C (3)) was “slight dose-dependent reduction in the cleavage of the full-length form”.

Source: publication PMC5618429, “Kempopeptin C, a Novel Marine-Derived Serine Protease Inhibitor Targeting Invasive Breast Cancer” (Marine Drugs, 2017)
